# Measured values as given in US7838552B2, “Compositions comprising nebivolol” (Forest Laboratories Holdings Limited, priority 2004, dated 2010).
# Test system: Black donor endothelial cells (HUVEC)
# Assay: NO release from HUVEC of Black donors, measured with a porphyrinic nanosensor
# Assay type: cell-based, Human
# Conditions: for magnitude of the increase in NO release, Black versus White donor cells: chronic ACE inhibitor treatment followed by nebivolol 1 μM, FIG. 2 and FIG. 4
# Method: All measurements presented were recorded in vitro using a sensitive porphyrinic probe, as previously described. Malinski T, Taha Z., Nature. 1992; 358:676-678; Malinski T, Czuchajowski L., Methods in Nitric Oxide Research. 1996:319-339. NO release was measured directly from HUVEC. HUVEC cells from Black and White donors were grown in Ham's F12K medium with 2 mM L-glutamine adjusted to contain 1.5 g/L sodium bicarbonate and supplemented with 0.1 mg/ml heparin and 0.03-0.05 mg/ml endothelial cell growth supplement (ECGS) +10% fetal bovine serum. The HUVEC cells were kept in an atmosphere of elevated CO2 concentration (5%). Nebivolol was obtained from Mylan Laboratories (Morgantown, W.Va.).
# All measurements of endothelial NO release were conducted in Hank's balance solution at 37° C. Cell wells were transferred to a Faraday cage and a porphyrinic sensor (diameter 0.5 mm) was positioned at a distance of 5±2 μm from the surface of the endothelial cells using an inverted microscope (Leica Microsystems, Wetzlar, Germany) and a computer-assisted micromanipulator. The sensor operated with a three-electrode system: nanosensor (working electrode), saturated calomel electrode (reference electrode) and platinum wire (counter electrode, 0.5 mm diameter). The three electrodes were connected to a potentiostat/galvanostat PAR273. The baseline was stabilized after about 20 seconds. The test compounds were injected with a nanoinjector onto the surface of the cells following solubilization in buffer. Cells were incubated with the test compounds for a 24-hour period. The compounds were then washed out of the system before being immediately reintroduced in order to evaluate the consequences of chronic treatment on NO release from the cells. For additive experiments, cells were incubated with ACE inhibitor for 24 hours, the inhibitor was washed out of the system, nebivolol was added and the NO release measured. The current proportional to the NO concentration was measured with the sensor, which operated in amperometric mode at a constant potential of 0.63V. Data were acquired with the use of an IBM computer with custom software and amperograms (current vs. time curves) were recorded with a Guniry FAS1 Femtostat (Warminster, Pa.). Maximum release of NO was produced using a calcium agonist (1 μM). By increasing cytoplasmic levels of calcium, the ion can bind to calmodulin. The Ca2+-calmodulin complex is a cofactor for endothelial NO synthase, along with FAD, FMN, Heme and BH4.
# Nanosensors were prepared from carbon fibers. The size of the tip of carbon fiber was reduced from 6 μm to less than 1 μm by temperature controlled burning. The sensors were sensitized to NO by deposition of electrically conductive polymeric porphyrin and covered with a thin layer of Nafion. […]
SMILES,"enhancement of the ability of nebivolol to increase NO release (Black donor cells, chronic (24 h) enalapril 5 and 10 μM, then nebivolol 1 μM, FIG. 3)","magnitude of the increase in NO release, Black versus White donor cells","effect on the ability of nebivolol to increase NO release (Black donor cells, chronic (24 h) ramiprilat 1, 5 and 10 μM, washed out, then nebivolol 1 μM, FIG. 1)"
CCOC(=O)[C@H](CCc1ccccc1)N[C@@H](C)C(=O)N1CCC[C@H]1C(=O)O [enalapril],significantly enhanced,greater in endothelial cells from Blacks than Whites,–
C[C@H](N[C@@H](CCc1ccccc1)C(=O)O)C(=O)N1[C@H](C(=O)O)C[C@@H]2CCC[C@@H]21 [ramiprilat],–,greater in endothelial cells from Black donors,modest but significant effects
